Test results published in ChEMBL document CHEMBL5212743, “Selectivity Literature for EUbOPEN Chemogenomics Library wave 3” (2023).

What was measured:
[1] = target: Ribosomal protein S6 kinase beta-1 (Homo sapiens) (UniProt P23443); assay: Selectivity interaction (KinomeScan (DiscoverX)) EUB0000344a RPS6KB1; settings: at 1 µM
[2] = test system: Receptor-type tyrosine-protein kinase FLT3 (Homo sapiens), P36888 [K663Q]; assay: Selectivity interaction (KinomeScan (DiscoverX)) EUB0000344a FLT3; settings: at 1 µM
[3] = target: Kappa-type opioid receptor (Homo sapiens, UniProt P41145); assay: Selectivity interaction (GPCR panel (PDSP screen)) EUB0000344a OPRK1; settings: at 10 µM
[4] = target: Epidermal growth factor receptor (Homo sapiens, UniProt P00533); assay: Selectivity interaction (KinomeScan (DiscoverX)) EUB0000722a EGFR; settings: at 1 µM
[5] = target: Ribosomal protein S6 kinase alpha-5 (Homo sapiens) (UniProt O75582); assay: Selectivity interaction (KinomeScan (DiscoverX)) EUB0000722a RPS6KA5; settings: at 1 µM
[6] = target: Dual specificity tyrosine-phosphorylation-regulated kinase 1B (Homo sapiens, UniProt Q9Y463); assay: Selectivity interaction (KinomeScan (DiscoverX)) EUB0000733a DYRK1B; settings: at 1 µM
[7] = target: Serine/threonine-protein kinase Nek3 (Homo sapiens) (UniProt P51956); assay: Selectivity interaction (KinomeScan (DiscoverX)) EUB0000239b NEK3; settings: at 1 µM
[8] = target: Sigma intracellular receptor 2 (Homo sapiens, UniProt Q5BJF2); assay: Selectivity interaction (GPCR panel (PDSP screen)) EUB0000239b TMEM97; settings: at 10 µM
[9] = test system: T1, Receptor-type tyrosine-protein kinase FLT3 (Homo sapiens), P36888 [N841I]; assay: Selectivity interaction (KinomeScan (DiscoverX)) EUB0000239b FLT3; settings: at 1 µM
T1 sequence (whole entry): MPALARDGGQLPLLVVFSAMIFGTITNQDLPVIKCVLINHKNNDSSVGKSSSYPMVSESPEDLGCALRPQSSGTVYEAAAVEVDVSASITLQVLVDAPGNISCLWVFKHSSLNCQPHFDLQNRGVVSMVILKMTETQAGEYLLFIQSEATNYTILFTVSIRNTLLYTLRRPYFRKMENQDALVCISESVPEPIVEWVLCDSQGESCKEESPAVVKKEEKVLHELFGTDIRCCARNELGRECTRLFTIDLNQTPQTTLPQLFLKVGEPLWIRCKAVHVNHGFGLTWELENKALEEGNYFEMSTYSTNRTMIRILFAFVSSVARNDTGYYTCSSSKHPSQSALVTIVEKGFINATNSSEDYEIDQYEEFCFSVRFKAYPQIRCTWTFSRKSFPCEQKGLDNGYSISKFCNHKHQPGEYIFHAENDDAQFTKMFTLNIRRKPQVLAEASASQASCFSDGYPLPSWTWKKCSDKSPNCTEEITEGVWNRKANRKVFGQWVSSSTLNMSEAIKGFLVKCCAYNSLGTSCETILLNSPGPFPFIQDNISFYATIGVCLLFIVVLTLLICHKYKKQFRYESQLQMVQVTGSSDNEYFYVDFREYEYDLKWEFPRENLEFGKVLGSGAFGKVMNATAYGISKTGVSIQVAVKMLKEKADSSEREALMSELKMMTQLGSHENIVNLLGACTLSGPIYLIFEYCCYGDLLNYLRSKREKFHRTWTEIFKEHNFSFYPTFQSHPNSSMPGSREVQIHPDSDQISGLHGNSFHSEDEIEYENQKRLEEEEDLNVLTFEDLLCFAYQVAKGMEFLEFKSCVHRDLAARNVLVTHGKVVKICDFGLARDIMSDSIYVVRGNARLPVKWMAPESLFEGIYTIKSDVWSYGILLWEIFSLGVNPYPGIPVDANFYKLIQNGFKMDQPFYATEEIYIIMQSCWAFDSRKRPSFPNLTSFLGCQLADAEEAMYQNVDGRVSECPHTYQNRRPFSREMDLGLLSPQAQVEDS

[10] = test system: Phosphatidylinositol 4,5-bisphosphate 3-kinase catalytic subunit alpha isoform (Homo sapiens), P42336 [E545K]; assay: Selectivity interaction (KinomeScan (DiscoverX)) EUB0000239b PIK3CA; settings: at 1 µM
[11] = target: Cathepsin G (Homo sapiens) (UniProt P08311); assay: Selectivity interaction (Protease panel (enzymatic assay)) EUB0000239b CTSG; settings: at 10 µM
[12] = target: Sodium/nucleoside cotransporter 2 (Homo sapiens) (UniProt O43868); assay: Selectivity interaction (Enzyme panel (receptors, ion channels, enzymes, and transporters)) EUB0000239b SLC28A2; settings: at 10 µM
[13] = target: Homeodomain-interacting protein kinase 1 (Homo sapiens, UniProt Q86Z02); assay: Selectivity interaction (KinomeScan (DiscoverX)) EUB0000239b HIPK1; settings: at 1 µM
[14] = target: Microtubule-associated serine/threonine-protein kinase 1 (Homo sapiens) (UniProt Q9Y2H9); assay: Selectivity interaction (KinomeScan (DiscoverX)) EUB0000239b MAST1; settings: at 1 µM
[15] = target: Cyclin-dependent kinase 8 (Homo sapiens) (UniProt P49336); assay: Selectivity interaction (KinomeScan (DiscoverX)) EUB0000239b CDK8; settings: at 1 µM
[16] = target: Calcium/calmodulin-dependent protein kinase kinase 1 (Homo sapiens) (UniProt Q8N5S9); assay: Selectivity interaction (KinomeScan (DiscoverX)) EUB0000167b CAMKK1; settings: at 1 µM
Chain of Calcium/calmodulin-dependent protein kinase kinase 1 (Homo sapiens) (Q8N5S9 whole entry, looked up): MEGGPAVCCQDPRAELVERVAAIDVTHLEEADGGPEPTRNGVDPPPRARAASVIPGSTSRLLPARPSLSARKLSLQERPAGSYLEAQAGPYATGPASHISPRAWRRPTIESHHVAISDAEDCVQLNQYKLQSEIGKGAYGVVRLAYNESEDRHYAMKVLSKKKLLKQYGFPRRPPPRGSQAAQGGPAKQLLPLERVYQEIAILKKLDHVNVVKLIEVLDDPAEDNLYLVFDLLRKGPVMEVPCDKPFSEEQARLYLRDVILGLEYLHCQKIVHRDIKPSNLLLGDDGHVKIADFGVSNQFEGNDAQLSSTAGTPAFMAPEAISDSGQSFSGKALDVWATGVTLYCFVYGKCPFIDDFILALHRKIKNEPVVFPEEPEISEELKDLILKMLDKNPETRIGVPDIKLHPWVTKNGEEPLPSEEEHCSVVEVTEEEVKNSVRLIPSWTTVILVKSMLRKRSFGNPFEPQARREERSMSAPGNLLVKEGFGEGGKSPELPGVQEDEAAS

Chain of Phosphatidylinositol 4,5-bisphosphate 3-kinase catalytic subunit alpha isoform (Homo sapiens), P42336 [E545K] (P42336 whole entry E545K, canonical isoform): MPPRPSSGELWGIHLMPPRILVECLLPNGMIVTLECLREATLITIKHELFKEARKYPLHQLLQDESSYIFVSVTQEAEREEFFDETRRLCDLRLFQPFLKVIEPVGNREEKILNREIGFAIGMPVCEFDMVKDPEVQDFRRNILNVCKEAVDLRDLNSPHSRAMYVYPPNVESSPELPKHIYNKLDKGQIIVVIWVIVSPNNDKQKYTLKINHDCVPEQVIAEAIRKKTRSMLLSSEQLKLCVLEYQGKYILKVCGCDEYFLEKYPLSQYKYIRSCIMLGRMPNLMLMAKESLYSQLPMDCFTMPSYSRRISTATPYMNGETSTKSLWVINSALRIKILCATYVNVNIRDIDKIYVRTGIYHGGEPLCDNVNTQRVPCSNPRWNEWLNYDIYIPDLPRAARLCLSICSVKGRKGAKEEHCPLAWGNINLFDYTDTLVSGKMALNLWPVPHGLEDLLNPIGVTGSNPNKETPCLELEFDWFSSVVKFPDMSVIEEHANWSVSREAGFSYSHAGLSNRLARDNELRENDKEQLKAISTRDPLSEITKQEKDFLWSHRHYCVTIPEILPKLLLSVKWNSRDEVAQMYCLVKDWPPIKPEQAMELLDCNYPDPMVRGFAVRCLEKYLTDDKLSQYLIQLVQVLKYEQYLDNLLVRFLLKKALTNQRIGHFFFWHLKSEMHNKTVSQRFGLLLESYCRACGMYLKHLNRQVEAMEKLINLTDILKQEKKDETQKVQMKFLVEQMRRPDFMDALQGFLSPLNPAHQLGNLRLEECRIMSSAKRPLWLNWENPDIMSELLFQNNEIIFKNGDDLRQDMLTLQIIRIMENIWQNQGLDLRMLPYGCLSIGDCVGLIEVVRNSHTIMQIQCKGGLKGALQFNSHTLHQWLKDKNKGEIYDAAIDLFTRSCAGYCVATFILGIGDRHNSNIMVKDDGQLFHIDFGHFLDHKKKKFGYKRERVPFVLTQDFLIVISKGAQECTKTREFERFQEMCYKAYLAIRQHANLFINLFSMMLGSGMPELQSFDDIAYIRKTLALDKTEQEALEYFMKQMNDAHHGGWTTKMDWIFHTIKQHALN
Chain of Sodium/nucleoside cotransporter 2 (Homo sapiens) (O43868 whole entry): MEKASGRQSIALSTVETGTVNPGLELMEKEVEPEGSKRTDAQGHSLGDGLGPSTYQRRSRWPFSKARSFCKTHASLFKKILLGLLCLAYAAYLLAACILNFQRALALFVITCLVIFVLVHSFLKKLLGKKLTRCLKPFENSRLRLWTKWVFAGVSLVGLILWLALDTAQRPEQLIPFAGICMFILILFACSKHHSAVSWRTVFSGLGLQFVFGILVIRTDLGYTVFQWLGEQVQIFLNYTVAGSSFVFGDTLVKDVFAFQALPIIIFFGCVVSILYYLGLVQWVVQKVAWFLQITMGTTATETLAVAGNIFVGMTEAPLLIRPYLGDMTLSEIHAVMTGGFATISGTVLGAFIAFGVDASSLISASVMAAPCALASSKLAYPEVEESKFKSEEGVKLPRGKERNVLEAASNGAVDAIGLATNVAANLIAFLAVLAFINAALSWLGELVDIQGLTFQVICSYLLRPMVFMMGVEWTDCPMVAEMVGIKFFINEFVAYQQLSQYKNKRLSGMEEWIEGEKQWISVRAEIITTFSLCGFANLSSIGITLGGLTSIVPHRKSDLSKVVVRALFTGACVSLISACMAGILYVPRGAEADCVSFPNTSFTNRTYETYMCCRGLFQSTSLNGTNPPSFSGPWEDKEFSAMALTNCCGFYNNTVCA
Chain of Serine/threonine-protein kinase Nek3 (Homo sapiens) (P51956 whole entry): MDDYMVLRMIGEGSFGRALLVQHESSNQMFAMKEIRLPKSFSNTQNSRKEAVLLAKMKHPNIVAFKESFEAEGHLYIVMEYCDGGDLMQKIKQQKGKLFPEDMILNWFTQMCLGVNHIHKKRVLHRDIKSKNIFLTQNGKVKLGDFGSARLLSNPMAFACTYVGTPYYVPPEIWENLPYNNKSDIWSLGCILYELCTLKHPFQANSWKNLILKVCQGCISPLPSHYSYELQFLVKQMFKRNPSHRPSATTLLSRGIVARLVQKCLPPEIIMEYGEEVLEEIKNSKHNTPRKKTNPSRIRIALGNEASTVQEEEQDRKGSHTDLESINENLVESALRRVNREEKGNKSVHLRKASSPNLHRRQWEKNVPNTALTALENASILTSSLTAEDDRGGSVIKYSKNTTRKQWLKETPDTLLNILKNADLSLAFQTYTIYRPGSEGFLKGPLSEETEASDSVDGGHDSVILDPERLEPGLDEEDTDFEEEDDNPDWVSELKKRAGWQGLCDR
Chain of Microtubule-associated serine/threonine-protein kinase 1 (Homo sapiens) (Q9Y2H9 whole entry, looked up): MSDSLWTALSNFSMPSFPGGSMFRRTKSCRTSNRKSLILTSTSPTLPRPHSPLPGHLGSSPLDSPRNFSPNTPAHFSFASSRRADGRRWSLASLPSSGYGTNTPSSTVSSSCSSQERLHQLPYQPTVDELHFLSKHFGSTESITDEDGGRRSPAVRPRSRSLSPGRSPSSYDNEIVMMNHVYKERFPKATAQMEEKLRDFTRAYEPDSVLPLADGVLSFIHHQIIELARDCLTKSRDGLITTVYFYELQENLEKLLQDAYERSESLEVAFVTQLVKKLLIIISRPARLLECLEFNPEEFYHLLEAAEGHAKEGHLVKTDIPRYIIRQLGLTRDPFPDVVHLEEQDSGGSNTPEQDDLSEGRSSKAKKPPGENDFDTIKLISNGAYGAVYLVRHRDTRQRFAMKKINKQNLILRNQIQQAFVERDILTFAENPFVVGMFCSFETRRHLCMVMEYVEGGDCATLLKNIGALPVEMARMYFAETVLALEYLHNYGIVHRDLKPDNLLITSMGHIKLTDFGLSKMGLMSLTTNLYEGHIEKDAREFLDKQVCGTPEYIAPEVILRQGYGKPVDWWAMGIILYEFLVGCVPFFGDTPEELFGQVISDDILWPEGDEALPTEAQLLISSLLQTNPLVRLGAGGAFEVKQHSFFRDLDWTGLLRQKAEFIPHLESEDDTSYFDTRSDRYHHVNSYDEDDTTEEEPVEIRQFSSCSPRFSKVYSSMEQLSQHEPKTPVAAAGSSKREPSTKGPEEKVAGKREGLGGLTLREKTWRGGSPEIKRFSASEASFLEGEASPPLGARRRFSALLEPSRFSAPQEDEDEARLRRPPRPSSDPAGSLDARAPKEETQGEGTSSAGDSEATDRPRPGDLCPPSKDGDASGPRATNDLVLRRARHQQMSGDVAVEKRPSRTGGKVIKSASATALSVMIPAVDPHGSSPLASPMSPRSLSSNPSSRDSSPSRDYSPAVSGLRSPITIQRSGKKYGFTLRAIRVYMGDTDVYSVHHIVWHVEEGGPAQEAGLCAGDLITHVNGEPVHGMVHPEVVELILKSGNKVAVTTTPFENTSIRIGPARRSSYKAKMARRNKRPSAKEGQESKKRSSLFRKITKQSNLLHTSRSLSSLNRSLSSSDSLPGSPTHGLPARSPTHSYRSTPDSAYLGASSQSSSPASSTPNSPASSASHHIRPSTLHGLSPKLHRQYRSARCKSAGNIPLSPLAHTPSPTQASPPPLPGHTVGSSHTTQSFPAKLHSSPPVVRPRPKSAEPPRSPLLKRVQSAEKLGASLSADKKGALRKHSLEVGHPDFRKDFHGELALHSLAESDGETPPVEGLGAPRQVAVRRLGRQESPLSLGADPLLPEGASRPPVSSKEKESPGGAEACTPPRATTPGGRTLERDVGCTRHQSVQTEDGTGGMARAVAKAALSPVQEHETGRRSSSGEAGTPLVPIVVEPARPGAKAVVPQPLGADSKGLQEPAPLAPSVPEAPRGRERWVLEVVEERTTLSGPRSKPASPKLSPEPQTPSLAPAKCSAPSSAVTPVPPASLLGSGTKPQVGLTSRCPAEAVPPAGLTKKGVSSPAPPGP
Chain of Cathepsin G (Homo sapiens) (P08311 whole entry): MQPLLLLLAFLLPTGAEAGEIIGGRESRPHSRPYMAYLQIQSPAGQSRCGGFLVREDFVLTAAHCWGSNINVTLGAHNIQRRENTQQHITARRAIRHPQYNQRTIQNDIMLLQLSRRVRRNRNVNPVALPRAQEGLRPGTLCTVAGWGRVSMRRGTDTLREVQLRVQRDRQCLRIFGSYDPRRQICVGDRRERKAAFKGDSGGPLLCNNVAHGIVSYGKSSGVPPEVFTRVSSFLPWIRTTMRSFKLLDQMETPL
Chain of Cyclin-dependent kinase 8 (Homo sapiens) (P49336 whole entry): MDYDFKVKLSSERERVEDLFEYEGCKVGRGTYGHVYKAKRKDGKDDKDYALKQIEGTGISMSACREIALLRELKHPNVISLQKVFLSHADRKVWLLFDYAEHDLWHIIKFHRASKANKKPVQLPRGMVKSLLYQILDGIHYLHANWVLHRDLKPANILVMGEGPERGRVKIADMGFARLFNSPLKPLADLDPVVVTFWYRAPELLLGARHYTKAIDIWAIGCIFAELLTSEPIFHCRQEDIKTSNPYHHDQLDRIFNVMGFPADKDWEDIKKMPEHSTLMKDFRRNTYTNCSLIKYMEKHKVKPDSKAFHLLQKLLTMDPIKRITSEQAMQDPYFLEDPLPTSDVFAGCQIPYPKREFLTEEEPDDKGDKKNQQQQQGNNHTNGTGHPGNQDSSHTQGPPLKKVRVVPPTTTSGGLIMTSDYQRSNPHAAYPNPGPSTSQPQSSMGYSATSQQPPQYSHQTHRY

Q: Which % of control [1] does the source give for N#CC1(c2ccccn2)CCN(Cc2cc(C(=O)N3CCCC3)c(=O)n3ccccc23)CC1 here?
A: The % of control was 34%.

Q: And the % of control [2]?
A: The % of control was 30%.

Q: What about the % of inhibition [3] of the same compound?
A: The % of inhibition was 46.8%.

Q: How did the % of control [4] turn out when CCN(Cc1ccc(Cl)cc1)c1ncc(C(=O)NCCCN2CCCC2=O)c(NC2CCCC2)n1 was run?
A: The % of control was 27%.

Q: And the % of control [5]?
A: The % of control was 35%.

Q: Which % of control [6] does the source give for FC(F)(F)c1ccc2c(c1)nc(-c1cccnc1)n2C1CC1 here?
A: The % of control was 53%.

Q: Which % of control [7] does the source give for CO[C@@H](C)c1c(Nc2ccc([C@H](N(C)C(=O)C3CCS(=O)(=O)CC3)C(F)(F)F)cc2)cnc2cc(Cl)nn12 here?
A: Its % of control is 40%.

Q: What about the % of inhibition [8] of the same compound?
A: Its % of inhibition is 49.9%.

Q: And the % of control [9]?
A: Its % of control is 23%.

Q: What about the % of control [10] of the same compound?
A: The % of control was 48%.

Q: What about the % of inhibition [11] of the same compound?
A: The % of inhibition was 7%.

Q: And the % of inhibition [12]?
A: The % of inhibition was 52%.

Q: And the % of control [13]?
A: Its % of control is 40%.

Q: And the % of control [14]?
A: The % of control was 43%.

Q: And the % of control [15]?
A: The % of control was 39%.

Q: Which % of control [16] does the source give for Cc1cccc(-c2cnc3occ(-c4ccc(C(=O)O)c(C5CCCC5)c4)c3c2)c1 here?
A: Its % of control is 12%.
